Measured values taken from ChEMBL document CHEMBL5550153, “Semisynthesis and biological evaluation of novel honokiol thioethers against colon cancer cells HCT116 via inhibiting the transcription and expression of YAP protein” (Bioorg Med Chem, 2024).
Active and inactive are the calls of the source. The rule behind the calls is not given here.

What was measured:
MGC-803 = assay: Antiproliferative activity against human MGC-803 cells assessed as inhibition of cell growth incubated for 48 hrs by MTT assay; assay type: functional, cell-based; details: MGC-803, 48 h
HCT-116 [1] = assay: Antiproliferative activity against human HCT-116 cells assessed as inhibition of cell growth incubated for 48 hrs by MTT assay; assay type: functional, cell-based; details: HCT-116, 48 h
KYSE-450 = assay: Antiproliferative activity against human KYSE-450 cells assessed as inhibition of cell growth incubated for 48 hrs by MTT assay; assay type: functional, cell-based; details: KYSE-450, 48 h
HCT-116 [2] = assay: Downregulation of YAP protein expression in human HCT-116 cells at 2 to 6 micromol/L measured after 48 hrs by Western blot analysis; assay type: functional, cell-based; details: dose 2-6 µmol/L
HCT-116 [3] = assay: Downregulation of TAZ protein expression in human HCT-116 cells at 2 to 6 micromol/L measured after 48 hrs by Western blot analysis; assay type: functional, cell-based; details: dose 2-6 µmol/L
HCT-116 [4] = assay: Activation of Hippo signaling pathway in human HCT-116 cells assessed as increase in YAP phosphorylation level at 2 to 6 micromol/L incubated for 48 hrs by Western blotting analysis; assay type: cell-based; details: dose 2-6 µmol/L
HCT-116 [5] = assay: Downregulation of YAP gene transcription in human HCT-116 cells at 6 micromol/L measured after 48 hrs by RT-qPCR analysis; assay type: functional, cell-based; details: dose 6.0 µmol/L
HCT-116 [6] = assay: Antiproliferative activity against human HCT-116 cells assessed as inhibition of cell growth at 2 to 6 micromol/L by MTT assay; assay type: functional, cell-based; details: dose 2-6 µmol/L, time 0-48 hrs, TDE = time-dependent effect
HCT-116 [7] = assay: Antiproliferative activity against human HCT-116 cells assessed as inhibition of cell growth measured upto 48 hrs by MTT assay; assay type: functional, cell-based; details: dose 2-6 µmol/L
HCT-116 [8] = assay: Inhibition of colony formation in human HCT-116 cells at 2 to 8 micromol/L measured daily for 7 days by crystal violet staining based analysis; assay type: functional, cell-based; details: dose 2-8 µmol/L, time 7.0 day
HCT-116 [9] = assay: Induction of cell cycle arrest in human HCT-116 cells assessed as increase in cells at G1 phase at 2 to 6 micromol/L measured after 48 hrs by PI staining based flow cytometry analysis relative to control; assay type: functional; details: dose 2-6 µmol/L, at 2 to 6 µM
HCT-116 [10] = assay: Induction of cell cycle arrest in human HCT-116 cells assessed as downregulation of CDK4 level at 2 to 6 micromol/L measured after 48 hrs by Western blot analysis; assay type: functional, cell-based; details: dose 2-6 µmol/L
HCT-116 [11] = assay: Induction of cell death in human HCT-116 cells at 2 to 6 micromol/L measured after 48 hrs by Annexin V-FITC/PI staining based flow cytometry analysis; assay type: functional; details: dose 2-6 µmol/L

SMILES	IC50 (MGC-803)	IC50 (HCT-116 [1])	IC50 (KYSE-450)	also measured
C=CCc1ccc(O)c(-c2ccc3c(c2)C[C@@H](CSc2nnc(-c4ccc(F)cc4)o2)O3)c1	25.1 µM	27.4 µM	> 50 µM	
C=CCc1ccc(O)c(-c2ccc3c(c2)C[C@@H](CSc2nnc(-c4ccc([N+](=O)[O-])cc4)o2)O3)c1	> 50 µM	6.1 µM	> 50 µM	Activity (HCT-116 [2]): Active; Activity (HCT-116 [3]): Active; Activity (HCT-116 [4]): inactive; Activity (HCT-116 [5]): Active; Activity (HCT-116 [6]): Tde; Activity (HCT-116 [7]): Dose-Dependent Effect; inhibition (HCT-116 [8]): Active; Activity (HCT-116 [9]): >20%; Activity (HCT-116 [10]): Active; Activity (HCT-116 [11]): Active
C=CCc1ccc(O)c(-c2ccc3c(c2)C[C@@H](CSc2nnc(-c4cccc(C)c4)o2)O3)c1	20.5 µM	> 50 µM	> 50 µM	
C=CCc1ccc(O)c(-c2ccc3c(c2)C[C@@H](CSc2nnc(-c4ccc(Cl)cc4)o2)O3)c1	27 µM	37.9 µM	> 50 µM	
C=CCc1ccc(O)c(-c2ccc3c(c2)C[C@@H](CSc2nnc(-c4ccncc4)o2)O3)c1	40.6 µM	> 50 µM	> 50 µM	
C=CCc1ccc(O)c(-c2ccc3c(c2)C[C@@H](CSc2nnc(-c4ccccc4F)o2)O3)c1	16.2 µM	20.1 µM	38.7 µM	
C=CCc1ccc(O)c(-c2ccc3c(c2)C[C@@H](CSc2nnc(-c4ccccc4Br)o2)O3)c1	> 50 µM	> 50 µM	> 50 µM	
C=CCc1ccc(O)c(-c2ccc3c(c2)C[C@@H](CSc2nnc(-c4ccc(Br)cc4)o2)O3)c1	44.6 µM	52.2 µM	> 50 µM	
C=CCc1ccc(O)c(-c2ccc3c(c2)C[C@@H](CSc2nnc(-c4ccc(C)cc4)o2)O3)c1	29.5 µM	59.6 µM	> 50 µM	
C=CCc1ccc(O)c(-c2ccc3c(c2)C[C@@H](CSc2nnc(-c4ccccc4C)o2)O3)c1	25.7 µM	47.7 µM	> 50 µM	
C=CCc1ccc(O)c(-c2ccc3c(c2)C[C@@H](CSc2nnc(-c4ccccc4Cl)o2)O3)c1	> 50 µM	> 50 µM	> 50 µM	
C=CCc1ccc(O)c(-c2ccc3c(c2)C[C@@H](CSc2nnc(-c4ccc(Cl)cc4Cl)o2)O3)c1	21.5 µM	> 50 µM	> 50 µM	
C=CCc1ccc(O)c(-c2ccc3c(c2)C[C@@H](CSc2nnc(-c4cccc(F)c4)o2)O3)c1	23.8 µM	29.4 µM	> 50 µM	
C=CCc1ccc(O)c(-c2ccc3c(c2)C[C@@H](CSc2nnc(-c4ccc(F)cc4Cl)o2)O3)c1	20.4 µM	> 50 µM	> 50 µM	
C=CCc1ccc(O)c(-c2ccc3c(c2)C[C@@H](CSc2nnc(-c4ccc(OC)cc4)o2)O3)c1	39.7 µM	> 50 µM	> 50 µM	
C=CCc1ccc(O)c(-c2ccc3c(c2)C[C@@H](CSc2nnc(-c4cccc(Cl)c4)o2)O3)c1	24.6 µM	43.4 µM	> 50 µM	
C=CCc1ccc(O)c(-c2ccc3c(c2)C[C@@H](CSc2nnc(-c4cccc(OC)c4)o2)O3)c1	> 50 µM	> 50 µM	> 50 µM	
C=CCc1ccc(O)c(-c2ccc3c(c2)C[C@@H](CSc2nnc(-c4ccccc4)o2)O3)c1	27.5 µM	46.7 µM	> 50 µM	
C=CCc1ccc(O)c(-c2ccc(O)c(CC=C)c2)c1 [HONOKIOL]	11.8 µM	17.2 µM	32.4 µM	
C=CCc1ccc(O)c(-c2ccc3c(c2)C[C@@H](CSc2nnc(-c4cccc(Br)c4)o2)O3)c1	20.4 µM	57.6 µM	> 50 µM	
O=c1[nH]cc(F)c(=O)[nH]1 [FLUOROURACIL]	3.88 µM	9.63 µM	32.6 µM	
C=CCc1ccc(O)c(-c2ccc3c(c2)C[C@@H](CSc2nnc(-c4cccnc4)o2)O3)c1	8.63 µM	12.3 µM	> 50 µM	
C=CCc1ccc(O)c(-c2ccc3c(c2)C[C@@H](CSc2nnc(-c4ccc(C#N)cc4)o2)O3)c1	> 50 µM	> 50 µM	> 50 µM	
C=CCc1ccc(O)c(-c2ccc3c(c2)C[C@@H](CSc2nnc(-c4ccccc4OC)o2)O3)c1	> 50 µM	> 50 µM	> 50 µM	
